HELM strings list units from the 5' end as sugar, base in round brackets, then linkage (d deoxyribose, r ribose, m 2'-O-methyl, p phosphodiester). Strings are as the collection lists them; they lack the last nucleoside at the 3' end of the tested compound. [moe] = 2'-O-(2-methoxyethyl) (MOE); [sp] = phosphorothioate linkage; [m5C] = 5-methylcytosine
Biological target: PRNP
Experiment: mouse, dose not given
Settings: ASO

| Substance | 3 h FOB score [score 0-7] |
| --- | --- |
| RNA1{[moe](A)[sp].[moe]([m5C])[sp].[moe](T)p.[moe]([m5C])p.[moe](T)p.[moe](A)p.[moe](T)p.d(G)[sp].d(T)[sp].d(T)[sp].d(T)[sp].d(T)[sp].d([m5C])[sp].d([m5C])[sp].d(A)[sp].d(G)[sp].d(T)[sp].[moe](G)p.[moe]([m5C])}$$$$ (last 3' nucleoside missing) | 4.25 |
| RNA1{[moe](A)[sp].[moe]([m5C])p.[moe](A)p.[moe](A)p.[moe](T)[sp].d([m5C])[sp].d(T)[sp].d(G)[sp].d(T)[sp].d(T)[sp].d(G)[sp].d(T)[sp].d(G)[sp].d(G)[sp].d(T)[sp].[moe](T)p.[moe]([m5C])p.[moe](A)[sp].[moe](G)}$$$$ (last 3' nucleoside missing) | 6.5 |
| RNA1{[moe](A)[sp].[moe]([m5C])p.[moe](A)p.[moe](T)p.[moe](T)[sp].d(T)[sp].d(A)[sp].d(T)[sp].d(T)[sp].d(T)[sp].d([m5C])[sp].d(A)[sp].d(T)[sp].d(G)[sp].d(T)[sp].[moe](G)p.[moe]([m5C])p.[moe]([m5C])[sp].[moe](A)}$$$$ (last 3' nucleoside missing) | 3 |
| RNA1{[moe](A)[sp].[moe]([m5C])p.[moe](G)p.[moe](T)p.[moe]([m5C])[sp].d([m5C])[sp].d(A)[sp].d(T)[sp].d(T)[sp].d(T)[sp].d(T)[sp].d([m5C])[sp].d(T)[sp].d(G)[sp].d(T)[sp].[moe](G)p.[moe]([m5C])p.[moe](T)[sp].[moe](T)}$$$$ (last 3' nucleoside missing) | 1.75 |
| RNA1{[moe](A)[sp].[moe]([m5C])p.[moe](T)p.[moe](G)p.[moe](A)[sp].d(A)[sp].d(T)[sp].d(T)[sp].d(T)[sp].d(T)[sp].d([m5C])[sp].d(T)[sp].d([m5C])[sp].d(T)[sp].d([m5C])[sp].[moe]([m5C])p.[moe]([m5C])p.[moe](A)[sp].[moe](G)}$$$$ (last 3' nucleoside missing) | 0 |
| RNA1{[moe](A)[sp].[moe]([m5C])p.[moe](T)p.[moe](T)p.[moe](G)[sp].d(T)[sp].d([m5C])[sp].d(A)[sp].d(G)[sp].d(T)[sp].d(T)[sp].d(T)[sp].d(T)[sp].d(T)[sp].d([m5C])[sp].[moe]([m5C])p.[moe]([m5C])p.[moe]([m5C])[sp].[moe](A)}$$$$ (last 3' nucleoside missing) | 1 |
| RNA1{[moe](A)[sp].[moe]([m5C])p.[moe](T)p.[moe](T)p.[moe](G)p.[moe](T)p.d([m5C])[sp].d(A)[sp].d(G)[sp].d(T)[sp].d(T)[sp].d(T)[sp].d(T)[sp].d(T)[sp].d([m5C])[sp].d([m5C])[sp].[moe]([m5C])p.[moe]([m5C])[sp].[moe](A)}$$$$ (last 3' nucleoside missing) | 0.25 |
| RNA1{[moe](A)[sp].[moe]([m5C])p.[moe](T)p.[moe](T)p.d(G)[sp].d(T)[sp].d([m5C])[sp].d(A)[sp].d(G)[sp].d(T)[sp].d(T)[sp].d(T)[sp].d(T)[sp].d(T)[sp].[moe]([m5C])p.[moe]([m5C])p.[moe]([m5C])p.[moe]([m5C])[sp].[moe](A)}$$$$ (last 3' nucleoside missing) | 2.5 |
| RNA1{[moe](A)[sp].[moe]([m5C])p.[moe](T)p.[moe]([m5C])p.[moe](T)[sp].d(A)[sp].d(T)[sp].d(G)[sp].d(T)[sp].d(T)[sp].d(T)[sp].d(T)[sp].d([m5C])[sp].[moe]([m5C])p.[moe](A)p.[moe](G)[sp].[moe](T)}$$$$ (last 3' nucleoside missing) | 4.5 |
| RNA1{[moe](A)[sp].[moe]([m5C])p.[moe](T)p.[moe]([m5C])p.[moe](T)[sp].d(A)[sp].d(T)[sp].d(G)[sp].d(T)[sp].d(T)[sp].d(T)[sp].d(T)[sp].d([m5C])[sp].d([m5C])[sp].d(A)[sp].[moe](G)p.[moe](T)p.[moe](G)[sp].[moe]([m5C])}$$$$ (last 3' nucleoside missing) | 2 |
| RNA1{[moe](A)[sp].[moe]([m5C])p.[moe](T)p.[moe]([m5C])p.[moe](T)p.[moe](A)p.d(T)[sp].d(G)[sp].d(T)[sp].d(T)[sp].d(T)[sp].d(T)[sp].d([m5C])[sp].d([m5C])[sp].d(A)[sp].d(G)[sp].[moe](T)p.[moe](G)[sp].[moe]([m5C])}$$$$ (last 3' nucleoside missing) | 1.25 |
| RNA1{[moe](A)[sp].[moe]([m5C])p.[moe](T)p.[moe]([m5C])p.[moe](T)p.d(A)[sp].d(T)[sp].d(G)[sp].d(T)[sp].d(T)[sp].d(T)[sp].d(T)[sp].d([m5C])[sp].d([m5C])[sp].[moe](A)[sp].[moe](G)p.[moe](T)p.[moe](G)}$$$$ (last 3' nucleoside missing) | 2.25 |
| RNA1{[moe](A)[sp].[moe]([m5C])p.[moe](T)p.[moe]([m5C])p.d(T)[sp].d(A)[sp].d(T)[sp].d(G)[sp].d(T)[sp].d(T)[sp].d(T)[sp].d(T)[sp].d([m5C])[sp].d([m5C])[sp].[moe](A)p.[moe](G)p.[moe](T)p.[moe](G)[sp].[moe]([m5C])}$$$$ (last 3' nucleoside missing) | 1.5 |
| RNA1{[moe](A)[sp].[moe]([m5C])p.[moe](T)p.d([m5C])[sp].d(T)[sp].d(A)[sp].d(T)[sp].d(G)[sp].d(T)[sp].d(T)[sp].d(T)[sp].d(T)[sp].d([m5C])[sp].[moe]([m5C])p.[moe](A)p.[moe](G)p.[moe](T)p.[moe](G)[sp].[moe]([m5C])}$$$$ (last 3' nucleoside missing) | 1.5 |
| RNA1{[moe](A)[sp].[moe]([m5C])p.[moe]([m5C])p.[moe](A)p.[moe](T)[sp].d(A)[sp].d(T)[sp].d(A)[sp].d([m5C])[sp].d([m5C])[sp].d(A)[sp].d(T)[sp].d(G)[sp].d(T)[sp].d(A)[sp].[moe]([m5C])p.[moe](A)p.[moe](G)[sp].[moe](T)}$$$$ (last 3' nucleoside missing) | 4.75 |
| RNA1{[moe](G)[sp].[moe](A)p.[moe](G)p.[moe](T)p.[moe](G)[sp].d(A)[sp].d(A)[sp].d(T)[sp].d(T)[sp].d(A)[sp].d(T)[sp].d(T)[sp].d(T)[sp].d(T)[sp].d([m5C])[sp].[moe](T)p.[moe](T)p.[moe]([m5C])[sp].[moe](T)}$$$$ (last 3' nucleoside missing) | 2 |
| RNA1{[moe](G)[sp].[moe](A)p.[moe](G)p.[moe]([m5C])p.[moe](A)[sp].d(A)[sp].d(T)[sp].d(A)[sp].d(T)[sp].d(A)[sp].d(T)[sp].d(T)[sp].d([m5C])[sp].d(A)[sp].d([m5C])[sp].[moe]([m5C])p.[moe](A)p.[moe](A)[sp].[moe](A)}$$$$ (last 3' nucleoside missing) | 2.5 |
| RNA1{[moe](G)[sp].[moe](A)p.[moe](T)p.[moe](T)p.[moe](G)[sp].d(T)[sp].d([m5C])[sp].d(T)[sp].d([m5C])[sp].d([m5C])[sp].d([m5C])[sp].d(T)[sp].d(A)[sp].d(T)[sp].d(T)[sp].[moe]([m5C])p.[moe](T)p.[moe](T)[sp].[moe](T)}$$$$ (last 3' nucleoside missing) | 5.5 |
